Measurements from article PMC8900822 (Acta Crystallographica. Section D, Structural Biology, 2022).

What was measured:
hCA IX = target: T1, hCA IX (Homo sapiens, UniProt Q16790); assay: biochemical
T1 construct: made in house

mtCA 03 = target: T2, mtCA 03 (Mycobacterium tuberculosis, UniProt P96878); assay: biochemical
T2 sequence (P96878 550-764): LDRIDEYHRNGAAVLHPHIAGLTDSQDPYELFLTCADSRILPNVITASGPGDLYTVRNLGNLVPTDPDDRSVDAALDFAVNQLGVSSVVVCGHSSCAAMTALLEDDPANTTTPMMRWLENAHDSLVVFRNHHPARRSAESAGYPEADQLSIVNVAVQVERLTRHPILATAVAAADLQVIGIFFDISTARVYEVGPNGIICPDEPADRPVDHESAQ

BpsCAβ = BpsCAβ (Burkholderia pseudomallei, UniProt Q63Y17); details: pH 8.3
BpsCAβ, sequence (Q63Y17 1-256): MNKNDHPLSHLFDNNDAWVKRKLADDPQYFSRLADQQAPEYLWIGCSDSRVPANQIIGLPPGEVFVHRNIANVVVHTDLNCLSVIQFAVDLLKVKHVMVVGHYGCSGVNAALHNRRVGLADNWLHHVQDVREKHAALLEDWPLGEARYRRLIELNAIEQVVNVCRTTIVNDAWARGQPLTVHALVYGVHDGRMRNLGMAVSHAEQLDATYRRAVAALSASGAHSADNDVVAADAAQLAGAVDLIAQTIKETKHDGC

BpsCAγ = BpsCAγ (Burkholderia pseudomallei, UniProt Q63SQ4); details: pH 8.3
BpsCAγ, sequence (Q63SQ4 1-174): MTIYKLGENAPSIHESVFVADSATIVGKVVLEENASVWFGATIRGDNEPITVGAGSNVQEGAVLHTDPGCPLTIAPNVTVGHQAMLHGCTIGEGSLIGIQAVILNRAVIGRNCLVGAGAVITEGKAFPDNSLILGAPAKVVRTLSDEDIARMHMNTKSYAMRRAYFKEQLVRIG

carbonic anhydrase (CA) = test system: carbonic anhydrase (CA); set-up: method as in Lankas & Peter, 1992; details: in vivo study, ref Lankas & Peter, 1992; cited from earlier work
hCA II = hCA II (Homo sapiens, UniProt P00918); assay: biochemical
hCA XII = hCA XII (Homo sapiens, UniProt O43570); assay: biochemical
hCA XII, sequence (O43570 25-354): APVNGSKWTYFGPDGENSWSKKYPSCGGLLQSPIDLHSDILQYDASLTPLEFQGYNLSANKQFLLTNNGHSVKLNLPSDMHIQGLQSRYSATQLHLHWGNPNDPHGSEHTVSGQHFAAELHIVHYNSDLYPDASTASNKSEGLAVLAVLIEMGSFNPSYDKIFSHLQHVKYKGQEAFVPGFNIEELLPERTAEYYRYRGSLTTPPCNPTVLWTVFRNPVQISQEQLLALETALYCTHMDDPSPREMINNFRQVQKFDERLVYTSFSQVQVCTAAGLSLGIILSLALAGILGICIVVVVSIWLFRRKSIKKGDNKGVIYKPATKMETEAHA

SmCA = target: T3, SmCA (Schistosoma mansoni, UniProt A0A4Y5UX87, S271R); assay: biochemical
T3 sequence (A0A4Y5UX87 21-298 S271R): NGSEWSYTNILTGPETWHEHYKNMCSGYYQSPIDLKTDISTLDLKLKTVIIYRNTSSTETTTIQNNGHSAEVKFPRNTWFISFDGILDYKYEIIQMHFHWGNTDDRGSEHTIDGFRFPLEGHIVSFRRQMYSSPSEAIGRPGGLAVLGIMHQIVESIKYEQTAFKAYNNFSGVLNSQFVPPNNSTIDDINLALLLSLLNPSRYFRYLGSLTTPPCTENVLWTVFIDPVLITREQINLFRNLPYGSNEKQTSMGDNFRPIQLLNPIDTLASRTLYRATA

VhCAα = VhCAα (Vibrio cholerae, UniProt Q9KMP6); assay: biochemical
VhCAα, sequence (Q9KMP6 entry or part of it): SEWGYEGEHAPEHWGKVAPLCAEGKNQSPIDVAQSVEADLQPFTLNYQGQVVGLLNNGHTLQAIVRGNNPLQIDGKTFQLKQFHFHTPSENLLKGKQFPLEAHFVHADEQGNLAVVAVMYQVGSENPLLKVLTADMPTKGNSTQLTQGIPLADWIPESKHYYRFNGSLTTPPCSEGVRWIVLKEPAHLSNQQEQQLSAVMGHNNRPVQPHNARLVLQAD

SazCA = target: T4, SazCA (Sulfurihydrogenibium azorense, UniProt C1DTU5); assay: biochemical
T4 sequence (C1DTU5 19-254): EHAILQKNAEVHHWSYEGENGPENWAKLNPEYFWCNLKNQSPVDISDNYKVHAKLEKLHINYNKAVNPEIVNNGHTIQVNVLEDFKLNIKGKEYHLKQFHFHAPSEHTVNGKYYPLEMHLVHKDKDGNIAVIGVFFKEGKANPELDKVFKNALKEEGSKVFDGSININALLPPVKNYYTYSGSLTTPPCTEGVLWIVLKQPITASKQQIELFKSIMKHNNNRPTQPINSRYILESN

VhCAβ = VhCAβ (Vibrio cholerae, UniProt A0A086SLX8); assay: biochemical
VhCAβ, sequence (A0A086SLX8 entry or part of it): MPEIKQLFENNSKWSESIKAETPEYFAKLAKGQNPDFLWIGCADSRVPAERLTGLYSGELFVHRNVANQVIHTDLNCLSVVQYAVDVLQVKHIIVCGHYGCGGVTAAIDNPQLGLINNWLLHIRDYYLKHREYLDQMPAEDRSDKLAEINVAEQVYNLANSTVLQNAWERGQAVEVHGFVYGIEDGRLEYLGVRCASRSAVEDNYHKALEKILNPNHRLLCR

mtCA 02 = mtCA 02 (Mycobacterium tuberculosis, UniProt P9WPJ9); assay: biochemical
mtCA 02, sequence (P9WPJ9 whole entry, looked up): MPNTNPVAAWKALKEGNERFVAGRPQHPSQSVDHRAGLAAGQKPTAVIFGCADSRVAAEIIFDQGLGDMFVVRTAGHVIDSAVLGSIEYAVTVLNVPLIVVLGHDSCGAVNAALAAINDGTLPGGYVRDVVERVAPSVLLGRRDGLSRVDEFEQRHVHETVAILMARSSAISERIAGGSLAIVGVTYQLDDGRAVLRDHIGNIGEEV

TweCA = target: T5, TweCA (Thalassiosira weissflogii, UniProt Q5U9J1); assay: biochemical
T5 sequence (Q5U9J1 1-281): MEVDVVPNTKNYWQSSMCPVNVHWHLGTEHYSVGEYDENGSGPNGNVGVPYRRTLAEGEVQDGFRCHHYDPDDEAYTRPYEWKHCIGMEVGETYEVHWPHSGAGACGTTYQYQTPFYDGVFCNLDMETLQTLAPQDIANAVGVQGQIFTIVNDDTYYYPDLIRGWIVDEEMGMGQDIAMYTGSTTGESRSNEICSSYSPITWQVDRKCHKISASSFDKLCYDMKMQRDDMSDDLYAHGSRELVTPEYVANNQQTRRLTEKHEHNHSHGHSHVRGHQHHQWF

hCA I = hCA I (Homo sapiens, UniProt P00915); assay: Stopped-flow CO2-hydration assay, hCA I
hCA I, sequence (P00915 whole entry): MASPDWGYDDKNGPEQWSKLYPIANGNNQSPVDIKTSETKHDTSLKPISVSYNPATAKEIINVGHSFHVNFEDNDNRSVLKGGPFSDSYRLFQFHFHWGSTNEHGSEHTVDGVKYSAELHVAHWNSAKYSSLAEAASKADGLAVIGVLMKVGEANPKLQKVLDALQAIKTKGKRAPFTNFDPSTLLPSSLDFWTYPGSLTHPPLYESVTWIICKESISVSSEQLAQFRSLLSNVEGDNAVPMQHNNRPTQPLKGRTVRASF

Nc1cc(C(Cl)=C(Cl)Cl)c(S(N)(=O)=O)cc1S(N)(=O)=O [Clorsulon, 4-Amino-6-(1,2,2-trichlorovinyl)benzene-1,3-disulfonamide]
Ki (hCA IX): 138 nM
Ki (mtCA 03): 828 nM
Ki (BpsCAβ): 223 nM
Ki (BpsCAγ): 2500 nM
carbonic anhydrase (CA) inhibitory activity in rats (carbonic anhydrase (CA)): weak
Ki (hCA II): 59.1 nM
Ki (hCA XII): 78 nM
Ki (SmCA): 225 nM
Ki (VhCAα): 292 nM
Ki (SazCA): 7.7 nM
Ki (VhCAβ): 906 nM
Ki (mtCA 02): 2.9 nM
Ki (TweCA): 95.8 nM
Ki (hCA I): 4.52 µM
